In ChEMBL document CHEMBL1201862, “PubChem BioAssay data set” (2004):
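Test compounds were applied to cells in 96-well plates for 48 hours at 5 doses. GI50 is the concentration that inhibits growth by half.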 Activity calls are given as the source filed them. Rule as the data show it: active = GI50 up to about 1.1 µM and inactive = higher.

Key:
Test in all cases: growth of human tumour cells (NCI), 48 h
MDA-MB-231 = system: MDA-MB-231
EKVX = system: EKVX
MDA-N = system: MDA-N
OVCAR-8 = system: OVCAR-8
HCC 2998 = system: HCC 2998
HL-60 = system: HL-60
CCRF-CEM = system: CCRF-CEM
NCI/ADR-RES = system: NCI/ADR-RES
SK-OV-3 = system: SK-OV-3
A549 = system: A549
HCT-15 = system: HCT-15
UACC-62 = system: UACC-62
SF-268 = system: SF-268
786-0 = system: 786-0
HCT-116 = system: HCT-116
M14 = system: M14
K562 = system: K562
RPMI-8226 = system: RPMI-8226
UACC-257 = system: UACC-257
MDA-MB-435 = system: MDA-MB-435
HOP-62 = system: HOP-62
KM12 = system: KM12
ACHN = system: ACHN
SNB-19 = system: SNB-19
OVCAR-4 = system: OVCAR-4
DU-145 = system: DU-145
PC-3 = system: PC-3
NCI-H226 = system: NCI-H226
SF-295 = system: SF-295
U-251 = system: U-251
MOLT-4 = system: MOLT-4
SN12C = system: SN12C
TK-10 = system: TK-10
Hs-578T = system: Hs-578T
Malme-3M = system: Malme-3M
OVCAR-3 = system: OVCAR-3
RXF 393 = system: RXF 393
NCI-H23 = system: NCI-H23
IGROV-1 = system: IGROV-1
NCI-H460 = system: NCI-H460
SK-MEL-5 = system: SK-MEL-5
HOP-92 = system: HOP-92
COLO 205 = system: COLO 205
SF-539 = system: SF-539
T47D = system: T47D
OVCAR-5 = system: OVCAR-5
HT-29 = system: HT-29
CAKI-1 = system: CAKI-1
SK-MEL-2 = system: SK-MEL-2
A498 = system: A498
LOX IMVI = system: LOX IMVI
BT-549 = system: BT-549
MCF7 = system: MCF7
SK-MEL-28 = system: SK-MEL-28
UO-31 = system: UO-31
SNB-75 = system: SNB-75
SW-620 = system: SW-620
SR = system: SR
NCI-H522 = system: NCI-H522

SMILES: Cc1cccc2c(N)c3cccc(C(=O)NCC[N+](C)(C)Cc4ccc(S(C)(=O)=O)cc4)c3nc12
- GI50 (MDA-MB-231): > 81.3 µM (inactive)
- GI50 (EKVX): > 91.2 µM (inactive)
- GI50 (MDA-N): > 100 µM (inactive)
- GI50 (OVCAR-8): 79.6 µM (inactive)
- GI50 (HCC 2998): 46.7 µM (inactive)
- GI50 (HL-60): 2.8 µM (inactive)
- GI50 (CCRF-CEM): 7.03 µM (inactive)
- GI50 (NCI/ADR-RES): > 100 µM (inactive)
- GI50 (SK-OV-3): 33.6 µM (inactive)
- GI50 (A549): 1.44 µM (inactive)
- GI50 (HCT-15): > 100 µM
- GI50 (UACC-62): > 95.9 µM (inactive)
- GI50 (SF-268): 25.1 µM (inactive)
- GI50 (786-0): 28 µM (inactive)
- GI50 (HCT-116): 36.5 µM (inactive)
- GI50 (M14): > 100 µM (inactive)
- GI50 (K562): 10.1 µM (inactive)
- GI50 (RPMI-8226): 5.61 µM (inactive)
- GI50 (UACC-257): > 100 µM (inactive)
- GI50 (MDA-MB-435): > 100 µM (inactive)
- GI50 (HOP-62): 27.7 µM (inactive)
- GI50 (KM12): 64.6 µM (inactive)
- GI50 (ACHN): 31.4 µM (inactive)
- GI50 (SNB-19): 18.7 µM (inactive)
- GI50 (OVCAR-4): 41.4 µM (inactive)
- GI50 (DU-145): 50 µM (inactive)
- GI50 (PC-3): 44.2 µM (inactive)
- GI50 (NCI-H226): 98.2 µM (inactive)
- GI50 (SF-295): 89.1 µM (inactive)
- GI50 (U-251): 45.6 µM (inactive)
- GI50 (MOLT-4): 2.02 µM (inactive)
- GI50 (SN12C): 2.9 µM (inactive)
- GI50 (TK-10): > 89.1 µM (inactive)
- GI50 (Hs-578T): 19.9 µM (inactive)
- GI50 (Malme-3M): 38.5 µM (inactive)
- GI50 (OVCAR-3): 67 µM (inactive)
- GI50 (RXF 393): 76.7 µM (inactive)
- GI50 (NCI-H23): 21.8 µM (inactive)
- GI50 (IGROV-1): 27.9 µM (inactive)
- GI50 (NCI-H460): 4.3 µM (inactive)
- GI50 (SK-MEL-5): 70.5 µM (inactive)
- GI50 (HOP-92): 70 µM (inactive)
- GI50 (COLO 205): 47.1 µM (inactive)
- GI50 (SF-539): 32.4 µM (inactive)
- GI50 (T47D): 59.7 µM (inactive)
- GI50 (OVCAR-5): > 95.1 µM (inactive)
- GI50 (HT-29): 36.6 µM (inactive)
- GI50 (CAKI-1): 26.1 µM (inactive)
- GI50 (SK-MEL-2): 98.4 µM (inactive)
- GI50 (A498): 10.8 µM (inactive)
- GI50 (LOX IMVI): 28.8 µM (inactive)
- GI50 (BT-549): > 100 µM (inactive)
- GI50 (MCF7): 11.5 µM (inactive)
- GI50 (SK-MEL-28): > 100 µM (inactive)
- GI50 (UO-31): 75.9 µM (inactive)
- GI50 (SNB-75): 10.8 µM (inactive)
- GI50 (SW-620): 56.4 µM (inactive)

SMILES: COc1cc(Br)cc2cc(-c3cn4ccsc4n3)c(=O)oc12
- GI50 (MDA-MB-231): 20.6 µM (inactive)
- GI50 (EKVX): 29.2 µM (inactive)
- GI50 (SR): 25.9 µM (inactive)
- GI50 (MDA-N): 17 µM (inactive)
- GI50 (OVCAR-8): 45.8 µM (inactive)
- GI50 (HCC 2998): 7.24 µM (inactive)
- GI50 (HL-60): 29 µM (inactive)
- GI50 (CCRF-CEM): 35 µM (inactive)
- GI50 (NCI/ADR-RES): 34.2 µM (inactive)
- GI50 (SK-OV-3): 33.7 µM (inactive)
- GI50 (A549): 30.3 µM (inactive)
- GI50 (HCT-15): 33 µM
- GI50 (UACC-62): 22.2 µM (inactive)
- GI50 (SF-268): 34.3 µM (inactive)
- GI50 (786-0): 42.8 µM (inactive)
- GI50 (HCT-116): 25.6 µM (inactive)
- GI50 (M14): 27.9 µM (inactive)
- GI50 (K562): 32.1 µM (inactive)
- GI50 (RPMI-8226): 33.2 µM (inactive)
- GI50 (UACC-257): 37.6 µM (inactive)
- GI50 (MDA-MB-435): 21.6 µM (inactive)
- GI50 (HOP-62): 29.1 µM (inactive)
- GI50 (KM12): 18.9 µM (inactive)
- GI50 (ACHN): 34.8 µM (inactive)
- GI50 (SNB-19): 30.4 µM (inactive)
- GI50 (OVCAR-4): 51.2 µM (inactive)
- GI50 (DU-145): 30.5 µM (inactive)
- GI50 (PC-3): 25.2 µM (inactive)
- GI50 (SF-295): 26.8 µM (inactive)
- GI50 (U-251): 30 µM (inactive)
- GI50 (MOLT-4): 32 µM (inactive)
- GI50 (SN12C): 28.1 µM (inactive)
- GI50 (TK-10): 64.7 µM (inactive)
- GI50 (Hs-578T): 41.5 µM (inactive)
- GI50 (Malme-3M): 91.2 µM (inactive)
- GI50 (OVCAR-3): 35 µM (inactive)
- GI50 (RXF 393): 24.8 µM (inactive)
- GI50 (NCI-H23): 39.1 µM (inactive)
- GI50 (IGROV-1): 19.9 µM (inactive)
- GI50 (NCI-H460): 32 µM (inactive)
- GI50 (NCI-H522): 31 µM (inactive)
- GI50 (SK-MEL-5): 19.7 µM (inactive)
- GI50 (HOP-92): 11.1 µM (inactive)
- GI50 (COLO 205): 57.3 µM (inactive)
- GI50 (SF-539): 36.2 µM (inactive)
- GI50 (T47D): 19.6 µM (inactive)
- GI50 (OVCAR-5): 68.1 µM (inactive)
- GI50 (HT-29): 40.2 µM (inactive)
- GI50 (CAKI-1): 35 µM (inactive)
- GI50 (SK-MEL-2): 58.9 µM (inactive)
- GI50 (LOX IMVI): 49.4 µM (inactive)
- GI50 (BT-549): 20.3 µM (inactive)
- GI50 (MCF7): 7.19 µM (inactive)
- GI50 (SK-MEL-28): 46.2 µM (inactive)
- GI50 (UO-31): 23.8 µM (inactive)
- GI50 (SNB-75): 32.1 µM (inactive)
- GI50 (SW-620): 36 µM (inactive)
